According to ChEMBL document CHEMBL3228041, “Propiolaldehyde, a pargyline metabolite that irreversibly inhibits aldehyde dehydrogenase. Isolation from a hepatic microsomal system” (J Med Chem, 1979):
The source made the active and inactive calls. The calls are words filed in the database; no cut-off is given here.

What was measured:
Rattus norvegicus [1] = species on record: Rattus norvegicus; experiment: Induction of ethanol-derived blood acetaldehyde level in 0.1% phenobarbital for 8 days pretreated Sprague-Dawley rat measured after 2 hrs of acute ethanol dose; format: functional, organism-based
Rattus norvegicus [2] = species on record: Rattus norvegicus; experiment: Inhibition of Sprague-Dawley rat liver mitochondrial aldehyde dehydrogenase at 1 mM measured immediately after compound addition at 38 degC in presence of 0.25 M sucrose relative to control
Rattus norvegicus [3] = species on record: Rattus norvegicus; experiment: Inhibition of Sprague-Dawley rat liver mitochondrial aldehyde dehydrogenase assessed as complete inhibition at 1 mM measured after 5 to 10 mins at 38 degC in presence of 0.25 M sucrose
Rattus norvegicus [4] = species on record: Rattus norvegicus; experiment: Inhibition of Sprague-Dawley rat liver mitochondrial aldehyde dehydrogenase at 1 mM after 5 mins at 25 degC in presence of 0.25 M sucrose relative to control
Rattus norvegicus [5] = species on record: Rattus norvegicus; experiment: Inhibition of Sprague-Dawley rat liver mitochondrial aldehyde dehydrogenase at 1 mM after 5 mins at 0 degC in presence of 0.25 M sucrose relative to control
Rattus norvegicus [6] = species on record: Rattus norvegicus; experiment: Irreversible inhibition of Sprague-Dawley rat liver mitochondrial aldehyde dehydrogenase at 1 mM incubated for 10 mins at 38 degC in presence of 0.25 M sucrose followed by compound washout measured relative to control
Rattus norvegicus [7] = species on record: Rattus norvegicus; experiment: Inhibition of Sprague-Dawley rat liver mitochondrial aldehyde dehydrogenase at 1 mM at 38 degC in presence of 0.25 M sucrose relative to control; conditions: TDE = time-dependent effect
Liver microsome = experiment: Drug level in Sprague-Dawley rat liver microsomes treated with phenobarbital by GC-MS analysis in presence of NADPH; format: ADME

inhibition (Rattus norvegicus [2])	inhibition (Rattus norvegicus [3])	inhibition (Rattus norvegicus [4])	inhibition (Rattus norvegicus [5])	inhibition (Rattus norvegicus [6])	inhibition (Rattus norvegicus [7])	Drug metabolism (Liver microsome)	SMILES	Activity (Rattus norvegicus [1])
–	–	–	–	–	–	–	C#CCN(C)Cc1ccccc1	Active
43%	Active	45%	32%	Active	tde	metabolite_detected	C#CC=O [PROPYNAL]	–
